From patent US20100267792A1, “Topical Compositions Containing Desthiobiotin and its Derivatives and a Method of Treating Skin” (AVON PRODUCTS, INC., priority 2007, published 2010) come the findings set out here.

Assay [1] concerns Fibrillin-1 mRNA. As to the kind of experiment: Fibrillin-1 gene expression by quantitative RT-PCR in fibroblasts. The note with it: 0.001% DL-Desthiobiotin, 48 h, normal human dermal fibroblasts, QPCR, compared to solvent control, p<0.05. The class given is cell-based. As to the method:
Cell Treatment: Normal human dermal fibroblasts were plated at 10^6 cells/100 mm tissue culture plates in 10 mls of standard growth medium and incubated at 37° C. and 10% CO2. Approximately 24 hours later, cells were dosed with test actives and solvent controls diluted in fresh growth medium and incubated for 48 hours at 37° C. Following 48-hour incubation, cell medium was removed, and 1 ml of TRIzol® reagent was added to lyse the cells in each plate. Cells from each plate were scraped, passed several times through a pipette, and collected into 1.5 ml centrifuge tubes. The cell lysates were incubated for 5 minutes at 15 to 30° C. to permit the complete dissociation of nucleoprotein complexes, and then stored at −80° C. for RNA isolation. RNA Isolation and RT PCR: RNA was isolated using standard procedures and was dissolved in RNase-free water and stored at −80° C. The concentration of total RNA was determined by using Agilent 2100 Bioanalyzer. […] Reverse Transcriptase (RT) reactions were conducted following the manufacturer's instructions provided by Applied Biosystems, Calif. After the RT step, the reactions were stored at −20° C. for QPCR analysis. QPCR was conducted in a total volume of 20 μl. Applied Biosystems (AB) Universal PCR master mix was used. […]

Assay [2] relates to LOXL1 regulatory elements (promoter region of the LOXL1 gene). As to the kind of experiment: LOXL1 promoter luciferase-reporter assay. The assay is classed as cell-based. The note with it: 0.001% DL-Desthiobiotin, 24 h, human fibrosarcoma line HTI080, LOXL1/pGL3 vector, triplicate tests, p<0.05 compared to vehicle control. From the text:
Vector construction, transfection and expression: The promoter region of the LOXL1 gene was isolated and cloned into the pGL3 Luciferase reporter plasmid (Promega) by standard methods known in the art and according to manufacturer's instructions. The LOXL1/pGL3 vector and the control vector pRL-NULL (Promega), containing no regulatory elements, were contransfected into the human fibrosarcoma line HTI080 using LipofectAMINE™ LTX Reagent (Invitrogen) according to manufacturer's directions. Transfected cells were allowed to recover for 24 h. The culture medium was then replaced with fresh medium containing various concentrations of DL-Desthiobiotin, and the transfected cells cultured for an additional 24 h. The cultures were subsequently washed with PBS and exposed to 100 microlit cell lysis buffer/25 cm^2 culture area and gently shaken at room temperature for 30 min. The culture flasks containing the cell lysate were then immediately placed at −80 °C. Determination of reporter activity: The activity of the reporter gene, firefly luciferase, was determined according to the manufacturer's instructions (Dual-Luciferase® Reporter Assay System, Promega). Briefly, the activity of the reporter gene is determined relative to that of a control vector encoding a second luciferase gene, that from Renilla reniformis. […]

Turning to `CC1NC(=O)NC1CCCCCC(=O)O` (racemic) [DL-Desthiobiotin], the “increase in Fibrillin-1 gene expression” value in assay [1] was 47.55%. The “increase in expression of the reporter gene” value in assay [2] stood at 90%.
